Molecular target: DNA-PK (Homo sapiens (Human), UniProt P78527)
Test: DNA-PK/Biochemical Assay (FlashPlate kinase assay)
Settings: 5 μM ATP, 90 min, room temperature
Experimental: The kinase assay was carried out in streptavidin-coated […] microtitre FlashPlates®. To this end, 1.5 μg of the DNA-PK/protein complex and 100 ng of biotinylated substrate, such as, for example, […] biotin-NH2 (“biotin-DNA-PK peptide”), in a total volume of 36.5 μl (34.25 mM HEPES/KOH, 7.85 mM Tris-HCl, 68.5 mM KCl, 5 μM ATP, 6.85 mM MgCl2, 0.5 mM EDTA, 0.14 mM EGTA, 0.69 mM DTT, pH 7.4), were incubated at room temperature for 90 min with 500 ng of DNA from calf thymus, 0.1 μCi of 33P-ATP and 1.8% of DMSO per well with or without the test compound. The reaction was stopped using 50 μl/well of 200 mM EDTA. After incubation for a further 30 min at room temperature, the liquid was removed. Each well was washed three times with 100 μl of 0.9% sodium chloride solution. A non-specific reaction (blank value) was determined using 10 μM of a proprietary kinase inhibitor. The radioactivity measurement was carried out by means of a TopCount. IC50 values were calculated in RS1. • Literature: Kashishian et al. (2003) Molecular Cancer Therapeutics 1257.

| SMILES | IC50 |
| --- | --- |
| COc1cc2ncc3c(c(-c4ccccc4F)nn3C)c2cc1OC [Compound 76, 1-(2-Fluorophenyl)-7,8-dimethoxy-3-methyl-3H-pyrazolo[3,4-c]quinoline] | < 100 nM |
| COc1cc2ncc3c(c(-c4ccc(C#N)cc4)nn3C)c2cc1OP(=O)(O)c1ccccc1 [Compound 25, 1-(4-Cyanophenyl)-7-methoxy-3-methyl-3H-pyrazolo[3,4-c]quinolin-8-yl phenylphosphonate] | 100 to 500 nM |
| COc1cc2ncc3c(c(-c4ccc(C#N)cc4F)nn3C)c2cc1OC(C(N)=O)c1ccc(F)cc1 (centres unmarked) [Compound 23, 2-[1-(4-Cyano-2-fluoro-phenyl)-7-methoxy-3-methyl-3H-pyrazolo[3,4-c]quinolin-8-yloxy]-2-(4-fluorophenyl)-acetamide] | < 100 nM |
| COc1cc2ncc3c(c(-c4ccc(C#N)cc4)nn3C)c2cc1OCc1cccc(CN2CCOCC2)c1 [Compound 28, 4-[7-Methoxy-3-methyl-8-(3-morpholin-4-ylmethyl-benzyloxy)-3H-pyrazolo-[3,4-c]quinolin-1-yl]-benzonitrile] | 100 to 500 nM |
| COc1cc2ncc3c(c(-c4ccc(C#N)cc4)nn3C)c2cc1OC(C(=O)NCCN1CCNCC1)c1ccc(F)cc1 (centres unmarked) [Compound 50, 2-[1-(4-Cyano-phenyl)-7-methoxy-3-methyl-3H-pyrazolo-[3,4-c]quinolin-8-yl-oxy]-2-(4-fluoro-phenyl)-N-(2 - piperazin-1-ylethyl)-acetamide] | > 500 nM |
| COC(=O)c1cc(-c2[nH]nc3cnc4cc(OC)c(OC)cc4c23)ccc1C#N [Compound 72, 2-Cyano-5-(7,8-dimethoxy-3H-pyrazolo[3,4-c]quinolin-1-yl)benzoic acid methyl ester] | < 100 nM |
| COc1cc2ncc3c(c(-c4ccc(C#N)cc4)nn3C3CC3)c2cc1OC [Compound 62, 4-(3-Cyclopropyl-7,8-dimethoxy-3H-pyrazolo[3,4-c]-quinolin-1-yl)benzonitrile] | 100 to 500 nM |
| COc1cc2ncc3c(c(-c4ccc(C#N)cc4)nn3C)c2cc1OCc1cc2ccccc2s1 [Compound 37, 4-[8-(Benzo[b]thiophen-2-ylmethoxy)-7-methoxy-3-methyl-3H-pyrazolo[3,4-c]-quinolin-1-yl]benzonitrile] | > 500 nM |
| COc1cc2ncc3c(c(-c4ccc(C#N)cc4)nn3C)c2cc1OCc1ccnc(C#N)c1 [Compound 38, 4-[1-(4-Cyanophenyl)-7-methoxy-3-methyl-3H-pyrazolo[3,4-c]quinolin-8-yl-oxymethyl]pyridine-2-nitrile] | 100 to 500 nM |
| COc1cc2ncc3c(c(-c4ccc(C#N)cc4)nn3C)c2cc1O[C@H](C(N)=O)c1ccc(F)cc1 [Compound 10, (S)-2-[1-(4-Cyanophenyl)-7-methoxy-3-methyl-3H-pyrazolo[3,4-c]quinolin-8-yloxy]-2-(4-fluorophenyl)-acetamide] | < 100 nM |
| COc1cc2ncc3c(c(-c4ccc(C#N)cc4)nn3C)c2cc1OC(C(=O)NO)c1ccc(F)cc1 (centres unmarked) [Compound 53, 2-[1-(4-Cyano-phenyl)-7-methoxy-3-methyl-3H-pyrazolo-[3,4-c]quinolin-8-yloxy]-2-(4-fluoro-phenyl)-N-hydroxy-acetamide] | < 100 nM |
| COCCNC(=O)C(Oc1cc2c(cc1OC)ncc1c2c(-c2ccc(C#N)cc2)nn1C)c1ccc(F)cc1 (centres unmarked) [Compound 55, 2-[1-(4-Cyano-phenyl)-7-methoxy-3-methyl-3H-pyrazolo-[3,4-c]quinolin-8-yloxy]-2-(4-fluoro-phenyl)-N-(2-methoxyethyl)-acetamide] | < 100 nM |
| COc1cc2ncc3c(c(-c4ccc(C#N)cc4F)nn3C)c2cc1-c1cccnc1 [Compound 77, 3-Fluoro-4-(7-methoxy-3-methyl-8-pyridin-3-yl-3H-pyrazolo[3,4-c]-quinolin-1-yl)-benzonitrile] | < 100 nM |
| COc1cc2ncc3c(c(-c4ccc(C#N)cc4)nn3C)c2cc1OCc1ccc(F)cc1 [Compound 15, 4-[8-(4-Fluorobenzyloxy)-7-methoxy-3-methyl-3H-pyrazolo[3,4-c]quinolin-1-yl]-benzonitrile] | < 100 nM |
| COc1cc2ncc3c(c(-c4ccc(-c5ccn[nH]5)cc4)nn3C)c2cc1OCc1cncs1 [Compound 79, 7-Methoxy-3-methyl-1-[4-(2H-pyrazol-3-yl)phenyl]-8-(thiazol-5-ylmethoxy)-3H-pyrazolo[3,4-c]quinoline] | < 100 nM |
| COc1cc2ncc3c(c(-c4ccc(C#N)cc4)nn3C)c2cc1OCc1ccsc1 [Compound 35, 4-[7-Methoxy-3-methyl-8-(thiophen-3-ylmethoxy)-3H-pyrazolo[3,4-c]quinolin-1-yl]-benzonitrile] | < 100 nM |
| COc1cc2ncc3c(c(-c4ccc(-c5ccn[nH]5)cc4)nn3C)c2cc1-c1cn[nH]c1 [Compound 88, 7-Methoxy-3-methyl-8-(1H-pyrazol-4-yl)-1-[4-(2H-pyrazol-3-yl)phenyl]-3H-pyrazolo[3,4-c]quino-line] | < 100 nM |
| COc1cc2ncc3c(c(-c4ccc(C#N)cc4)nn3C(C)C)c2cc1OC [Compound 60, 4-(3-Isopropyl-7,8-dimethoxy-3H-pyrazolo[3,4-c]quinolin-1-yl)benzonitrile] | 100 to 500 nM |

| SMILES | IC50 |
| --- | --- |
| COc1cc2ncc3c(c(-c4ccc(C#N)cc4)nn3C)c2cc1OCc1ccnc(N)c1 [Compound 33, 4-[8-(2-Aminopyridin-4-ylmethoxy)-7-methoxy-3-methyl-3H-pyrazolo[3,4-c]-quinolin-1-yl]benzonitrile] | < 100 nM |
| COc1cc2ncc3c(c(-c4ccc(C#N)cc4F)nn3Cc3cccnc3)c2cc1OC [Compound 64, 4-(7,8-Dimethoxy-3-pyridin-3-ylmethyl-3H-pyrazolo[3,4-c]-quinolin-1-yl)-3-fluoro-benzonitrile] | > 500 nM |
| COc1cc2ncc3c(c(-c4ccc(C#N)cc4)nn3C)c2cc1OC(F)(F)c1ccccc1 [Compound 17, 4-[8-(Difluorophenyl-methoxy)-7-methoxy-3-methyl-3H-pyrazolo[3,4-c]-quinolin-1-yl]benzonitrile] | 100 to 500 nM |
| COc1cc2ncc3c(c(-c4ccc(C#N)cc4)nn3C)c2cc1OCc1cc(Br)cs1 [Compound 36, 4-[8-(4-Bromothiophen-2-ylmethoxy)-7-methoxy-3-methyl-3H-pyrazolo[3,4-c]-quinolin-1-yl]benzonitrile] | < 100 nM |
| COc1cc2ncc3c(c(-c4ccc(C#N)cc4)nn3C)c2cc1OCc1cnc2[nH]ccc2c1 [Compound 30, 4-[7-Methoxy-3-methyl-8-(1H-pyrrolo[2,3-b]pyridin-5-ylmethoxy)-3H-pyrazolo-[3,4-c]quinolin-1-yl]-benzonitrile] | 100 to 500 nM |
| COc1cc2ncc3c(c(-c4ccc(C#N)cc4)nn3C)c2cc1OC(C)(C(=O)O)c1ccccc1 (centres unmarked) [Compound 22, 2-[1-(4-Cyanophenyl)-7-methoxy-3-methyl-3H-pyrazolo[3,4-c]quinolin-8-yloxy]-2-phenylpropanoic acid] | > 500 nM |
| COc1cc2ncc3c(c(-c4ccc(C#N)cc4F)nn3C)c2cc1-c1cc[nH]c1 [Compound 89, 3-Fluoro-4-[7-methoxy-3-methyl-8-(1H-pyrrol-3-yl)-3H-pyrazolo[3,4-c]-quinolin-1-yl]-benzonitrile] | < 100 nM |
| COC(=O)C(Oc1cc2c(cc1OC)ncc1c2c(-c2ccc(C#N)cc2)nn1C)c1ccc(F)cc1 (centres unmarked) [Compound 18, Methyl 1-(4-cyanophenyl)-7-methoxy-3-methyl-3H-pyrazolo[3,4-c]quinolin-8-yloxy]-(4-fluorophenyl)-acetate] | 100 to 500 nM |
| COc1cc2ncc3c(c(-c4ccc(C#N)cc4)nn3C)c2cc1OCc1cscn1 [Compound 42, 4-[7-Methoxy-3-methyl-8-(thiazol-4-ylmethoxy)-3H-pyrazolo[3,4-c]quinolin-1-yl]-benzonitrile] | < 100 nM |
| C=CCn1nc(-c2ccc(C#N)cc2)c2c3cc(OC)c(OC)cc3ncc21 [Compound 63, 4-(3-Allyl-7,8-dimethoxy-3H-pyrazolo[3,4-c]quinolin-1-yl)-benzonitrile] | 100 to 500 nM |
| COc1cc2ncc3c(c(-c4ccc(C#N)cc4)nn3C)c2cc1OCc1ccccn1 [Compound 13, 4-[7-Methoxy-3-methyl-8-(pyridin-2-ylmethoxy)-3H-pyrazolo[3,4-c]quinolin-1-yl]-benzonitrile] | > 500 nM |
| COc1cc2ncc3n[nH]c(-c4ccc(C#N)c(-c5ccccc5)c4)c3c2cc1OC [Compound 74, 5-(7,8-Dimethoxy-3H-pyrazolo[3,4-c]quinolin-1-yl)biphenyl-2-carbonitrile] | > 500 nM |
| COc1cc2ncc3c(c(-c4ccc(C#N)cc4)nn3C)c2cc1OCc1cncs1 [Compound 43, 4-[7-Methoxy-3-methyl-8-(thiazol-5-ylmethoxy)-3H-pyrazolo[3,4-c]quinolin-1-yl]-benzonitrile] | < 100 nM |
| COc1cc2ncc3c(c(-c4ccc(C#N)cc4)nn3C)c2cc1OCc1nccs1 [Compound 39, 4-[7-Methoxy-3-methyl-8-(thiazol-2-ylmethoxy)-3H-pyrazolo[3,4-c]quinolin-1-yl]-benzonitrile] | < 100 nM |
| COc1cc2ncc3c(c(-c4ccc(C#N)cc4)nn3C)c2cc1O [Compound 5, 4-(8-Hydroxy-7-methoxy-3-methyl-3H-pyrazolo-[3,4-c]quinolin-1-yl)-benzonitrile] | < 100 nM |
| COc1cc2ncc3c(c(-c4ccc(C#N)c(Br)c4)nn3C)c2cc1OC [Compound 3] | < 100 nM |
| COc1cc2ncc3c(c(-c4ccc(C#N)cc4)nn3C)c2cc1OCc1cccs1 [Compound 34, 4-[7-Methoxy-3-methyl-8-(thiophen-2-ylmethoxy)-3H-pyrazolo[3,4-c]quinolin-1-yl]-benzonitrile] | < 100 nM |

From patent publication US8802712B2, “Pyrazoloquinolines” (Merck Patent GmbH, priority 2010, dated 2014)
